Results published in US20260070902A1, “SULFONYL DERIVATIVES AS CCR6 INHIBITORS” (Hoffmann-La Roche Inc., priority 2022, published 2026).

Legend:
Type in all cases: cell-based
human CCR6 [1] = biological target: T1, human CCR6 (Homo sapiens, UniProt P51684); assay: Human CCR6-CRE reporter assay; parameters: The second construct contained the open reading frame of human CCR6 in the pUNO1 backbone; host or cells: 293FT cells; settings: relative -Log IC50; 293FT cells transfected with human CCR6 and CRE-luciferase reporter; 6 μM Forskolin, 6 nM CCL20; 5 h
T1 sequence (P51684 1-374): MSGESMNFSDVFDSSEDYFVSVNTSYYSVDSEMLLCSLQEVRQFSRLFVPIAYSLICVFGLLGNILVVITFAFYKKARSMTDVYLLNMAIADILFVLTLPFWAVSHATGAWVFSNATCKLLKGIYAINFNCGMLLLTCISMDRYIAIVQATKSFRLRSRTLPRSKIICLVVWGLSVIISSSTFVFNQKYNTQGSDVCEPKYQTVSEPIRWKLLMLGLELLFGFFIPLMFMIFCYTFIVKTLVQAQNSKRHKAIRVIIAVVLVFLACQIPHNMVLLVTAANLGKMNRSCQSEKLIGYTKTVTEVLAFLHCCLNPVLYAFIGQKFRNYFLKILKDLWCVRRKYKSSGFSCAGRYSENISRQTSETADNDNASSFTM
Summary of the method: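 293FT cells transiently co-transfected with human CCR6 and a CRE-luc2P reporter, used 48 h later. Compounds incubated with cells in medium containing 6 μM Forskolin and 6 nM CCL20 (assay-medium levels), 0.1% DMSO final, 5 h at 37° C; luminescence read, relative −Log IC50 from four-parameter fit.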

Human CD4+ T cells = assay: CD4+ T cells chemotaxis assay towards CCL20; settings: Homo sapiens, CD4+ T cell, 3 h, relative -Log IC50, human CD4+ T cells stimulated with anti-CD3 and anti-CD28, migration towards 150 ng/ml CCL20
Summary of the method: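 Donor cells were stimulated overnight with anti-CD3/anti-CD28, then preincubated with compound for 30 min at 37° C (0.2% DMSO final). Migration through […]-pore Transwells toward 150 ng/ml CCL20 ran for 3 h at 37° C. Migrated cells were counted by CellTiter Glo, and relative −Log IC50 came from a four-parameter fit of % inhibition.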

human CCR6 [2] = biological target: T1, human CCR6; assay: CHO-K1 CCR6 chemotaxis assay towards CCL20; settings: relative -Log IC50; CHO-K1 cells overexpressing human CCR6; migration towards 100 ng/ml CCL20; 4 h
Summary of the method: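 Human CCR6-overexpressing CHO-K1 cells (2*10^6 cells/ml) were preincubated 30 min at 37 °C with compound (0.2% DMSO), then allowed to migrate 4 h through 8 µm Transwell pores toward 100 ng/ml CCL20. Migrated cells were counted by CellTiter Glo. −Log IC50 came from four-parameter fits normalised to DMSO without/with CCL20.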

| IC50 (human CCR6 [1]) [nM] | IC50 (Human CD4+ T cells) [nM] | IC50 (human CCR6 [2]) [nM] | Compound |
| --- | --- | --- | --- |
| 126 | 79.4 | 79.4 | Cc1n[nH]c2ccc(-c3ccc(S(=N)(=O)[C@H]4CC[C@H](Nc5ccc(S(F)(F)(F)(F)F)cc5)CC4)cc3)cc12 (stereo partly drawn) [Example 86, [4-(3-methyl-1H-indazol-5-yl)phenyl][trans-4-{[4-(pentafluoro-λ^6-sulfanyl)phenyl]Amino}cyclohexyl](imino)-λ^6-sulfanone] |
| 200 | 158 | 126 | N=S(=O)(c1ccc(-c2ccc3nccn3c2)cc1)[C@H]1CC[C@H](Nc2ccc(S(F)(F)(F)(F)F)cc2)CC1 (stereo partly drawn) [Example 87, (4-{imidazo[1,2-a]pyridin-6-yl}phenyl)[trans-4-{[4-(pentafluoro-λ^6-sulfanyl)phenyl]Amino}cyclohexyl](imino)-λ^6-sulfanone] |
| 158 | 39.8 | 79.4 | Cc1cnc2ccc(-c3ccc(S(=N)(=O)[C@H]4CC[C@H](Nc5ccc(S(F)(F)(F)(F)F)cc5)CC4)cc3)cn12 (stereo partly drawn) [Example 89, (4-{3-methylimidazo[1,2-a]pyridin-6-yl}phenyl)[trans-4-{[4-(pentafluoro-λ^6-sulfanyl)phenyl]Amino}cyclohexyl](imino)-λ^6-sulfanone] |
| 158 | 25.1 | 63.1 | N#Cc1cnc2ccc(-c3ccc(S(=N)(=O)[C@H]4CC[C@H](Nc5ccc(S(F)(F)(F)(F)F)cc5)CC4)cc3)cn12 (stereo partly drawn) [Example 90, 6-(4-{[trans-4-{[4-(pentafluoro-λ^6-sulfanyl)phenyl]Amino}cyclohexyl]sulfonimidoyl}phenyl)imidazo[1,2-a]pyridine-3-carbonitrile] |
| 100 | 79.4 | 63.1 | CC(C)c1nnc2cnc(-c3ccc(S(=N)(=O)[C@H]4CC[C@H](Nc5ccc(S(F)(F)(F)(F)F)cc5)CC4)cc3)cn12 (stereo partly drawn) [Example 162, {4-[3-(propan-2-yl)-[1,2,4]triazolo[4,3-a]pyrazin-6-yl]phenyl}[trans-4-{[4-(pentafluoro-λ^6-sulfanyl)phenyl]amino}cyclohexyl](imino)-λ^6-sulfanone] |
| 501 | 10000 | 2000 | Cc1nnc2cnc(-c3ccc(S(=N)(=O)[C@H]4CC[C@H](Nc5ccc(S(F)(F)(F)(F)F)cc5)CC4)cc3)cn12 (stereo partly drawn) [Example 170, (4-{3-methyl-[1,2,4]triazolo[4,3-a]pyrazin-6-yl}phenyl) [trans-4-{[4-(pentafluoro-λ^6-sulfanyl)phenyl]amino}cyclohexyl](imino)-λ^6-sulfanone] |
| 20 | 1 | 7.94 | CC(C)c1nnc2ccc(-c3ccc(S(=O)(=O)N4CCC(Nc5ccc(S(F)(F)(F)(F)F)cn5)CC4)cc3)cn12 [Example 172, 5-(pentafluoro-λ^6-sulfanyl)-N-(1-{4-[3-(propan-2-yl)-[1,2,4]triazolo[4,3-a]pyridin-6-yl]benzenesulfonyl}piperidin-4-yl)pyridin-2-amine] |
| 31.6 | 2.51 | 3.98 | O=S(=O)(c1ccc(-c2ccc3nccn3c2)cc1)N1CCC(Nc2ccc(S(F)(F)(F)(F)F)cn2)CC1 [Example 173, N-[1-(4-{imidazo[1,2-a]pyridin-6-yl}benzenesulfonyl)piperidin-4-yl]-5-(pentafluoro-λ^6-sulfanyl)pyridin-2-amine] |
| 25.1 | 2.51 | 5.01 | Cc1nnc2ccc(-c3ccc(S(=O)(=O)N4CCC(Nc5ccc(S(F)(F)(F)(F)F)cn5)CC4)cc3)cn12 [Example 174, N-[1-(4-{3-methyl-[1,2,4]triazolo[4,3-a]pyridin-6-yl}benzenesulfonyl)piperidin-4-yl]-5-(pentafluoro-λ^6-sulfanyl)pyridin-2-amine] |
| 20 | 5.01 | 10 | NC(=O)c1cc(-c2ccc(S(=O)(=O)N3CCC(Nc4ccc(S(F)(F)(F)(F)F)cn4)CC3)cc2)ccn1 [Example 175, 4-{4-[(4-{[5-(pentafluoro-λ^6-sulfanyl)pyridin-2-yl]amino}piperidin-1-yl)sulfonyl]phenyl}pyridine-2-carboxamide] |
| 126 | 1.58 | 10 | O=S(=O)(c1ccc(-c2ccc3nnc(C(F)F)n3c2)cc1)[C@H]1CC[C@H](Nc2ccc(S(F)(F)(F)(F)F)cc2)CC1 [Example 176, 4-(pentafluoro-λ^6-sulfanyl)-N-[trans-4-{4-[3-(difluoromethyl)-[1,2,4]triazolo[4,3-a]pyridin-6-yl]benzenesulfonyl}cyclohexyl]aniline] |
| 79.4 | 12.6 | 79.4 | NC(=O)c1cc(-c2ccc(S(=O)(=O)N3CCC(Nc4ccc(S(F)(F)(F)(F)F)cc4)CC3)cc2)ccn1 [Example 177, 4-{4-[(4-{[4-(pentafluoro-λ^6-sulfanyl)phenyl]amino}piperidin-1-yl)sulfonyl]phenyl}pyridine-2-carboxamide] |
| 63.1 | 0.794 | 10 | CC(C)c1nnc2ccc(-c3ccc(S(=O)(=O)[C@H]4CC[C@H](Nc5ccc(S(F)(F)(F)(F)F)cn5)CC4)cc3)cn12 [Example 178, 5-(pentafluoro-λ^6-sulfanyl)-N-[trans-4-{4-[3-(propan-2-yl)-[1,2,4]triazolo[4,3-a]pyridin-6-yl]benzenesulfonyl}cyclohexyl]pyridin-2-amine] |
| 79.4 | 6.31 | 10 | Cc1nnc2ccc(-c3ccc(S(=O)(=O)[C@H]4CC[C@H](Nc5ccc(S(F)(F)(F)(F)F)cn5)CC4)cc3)cn12 [Example 179, 5-(pentafluoro-λ^6-sulfanyl)-N-[trans-4-(4-{3-methyl-[1,2,4]triazolo[4,3-a]pyridin-6-yl}benzenesulfonyl)cyclohexyl]pyridin-2-amine] |
| 100 | 7.94 | 25.1 | O=S(=O)(c1ccc(-c2ccc3nccn3c2)cc1)[C@H]1CC[C@H](Nc2ccc(S(F)(F)(F)(F)F)cn2)CC1 [Example 180, 5-(pentafluoro-λ^6-sulfanyl)-N-[trans-4-(4-{imidazo[1,2-a]pyridin-6-yl}benzenesulfonyl)cyclohexyl]pyridin-2-amine] |
